According to patent publication US10722505B2, “Substituted 2,4 diamino-quinoline as new anticancer agents” (GENOSCIENCE PHARMA, priority 2014, dated 2020):
Counter-ions that a name gives are not always drawn.

Columns and labels:
CAKI-1 cell line = assay: CellTiter-Glo growth inhibition assay, CAKI-1; assay type: cell-based; details: Homo sapiens, CAKI-1, 72 h
Experimental: (§1) CAKI-1 and 786-0 cell lines were maintained in RPMI 1640 medium (Dutscher, L0498) containing 1% penicillin-streptomycin (Dutscher, P06-07100) and 10% Fetal Bovine Serum (Gibco, W3387L) and cultured at 37° C. with 5% CO2.
(§2) Cell viability was measured using the CellTiter-Glo® luminescent cell viability assay as described by the manufacturer (Promega, Ref G7571) using an Infinite F200Pro luminometer (Tecan). Briefly, cells were plated onto 96-well plates (white with clear bottom) in 90 μL of media per well and were allowed to grow overnight before the assay.
(§3) Compounds 2-3 and two reference compounds (Sorafenib and Sunitinib) were added at different concentrations to each well, and cell cultures were incubated for 72 h. For compound 2-3 analysis, H2O was used as a negative control (=untreated) and all concentrations were tested in a constant percentage of H2O. For Sorafenib and Sunitinib analysis, DMSO was used as a negative control (=untreated) and all concentrations were tested in a constant percentage of DMSO. 72 h after incubation of compounds, 100 μL of CellTiter-Glo® were added to each well and luminescence was measured using an Infinite F200Pro (Tecan). EC50 values were determined as the dose of compound required to reduce luminescent values to 50% of the signal obtained for untreated cell cultures. The experimental data were analyzed using a computer program, Graphpad Prism v5 (GraphPad Software, Inc. La Jolla, Calif.). All experiments were at least done in triplicate and repeated at least three independent times.

786-O cell line = assay: CellTiter-Glo growth inhibition assay, 786-O; assay type: cell-based; details: Homo sapiens, 786-0, 72 h
Experimental: as §1, §2, §3

MOLM-14 cell line [1] = assay: CellTiter-Glo growth inhibition assay, MOLM-14 (Example 6); assay type: cell-based, human; details: MOLM-14, 72 h, method of Example 6
Experimental: MOLM-14 cell line was cultured in MEM alpha medium supplemented with 10% v/v Fetal Bovine Serum, 1% Penicillin-Streptomycin and maintained at 37° C. with 5% CO2. 10,000 cells were plated onto 96-well plates immediately before the assay.
Each compound was added at different concentrations (combinations of six concentrations) to each well, and cell cultures were incubated for 72 h. Vehicle (H2O) was used as a control, and all compounds were tested in a constant percentage of vehicle. Cell outgrowth was measured using the CellTiter-Glo® luminescent cell viability assay as described by the manufacturer (Promega, Ref G7571 Madison, Wis., USA) using a Centro (Berthold, France) plate reader.
In each experiment, each point represents the average of triplicates in cell culture.
The experimental data are analyzed using a computer program, Graphpad Prism v5 (GraphPad Software, Inc. La Jolla, Calif.) and EC50 values were determined as the dose of compound required to reduce absorbance values to 50% of the signal obtained for vehicle treated cell cultures.

[2] = system: ALDH+ (CSC) population of MOLM-14 cell line; assay: Aldefluor kit assay, ALDH+ compartment in MOLM-14; assay type: cell-based, human; details: 72 h, control = 100
Description: Analysis of the of aldehyde dehydrogenase (ALDH) compartment and high activity level of aldehyde dehydrogenase activity (ALDH+) was used to detect tumor initiating cells (cancer stem cells, CSC) population. The Aldefluor™ kit assay (StemCell Technologies, 01700) allowed to assess the activity of drugs on CSC cells like in a MOLM-14 acute myeloid leukemia cell line population (ref: Storms, R. W., Trujillo, A. P., Springer, J. B., Shah, L., Colvin, O. M., Ludeman, S. M., & Smith, C. (1999). Isolation of primitive human hematopoietic progenitors on the basis of aldehyde dehydrogenase activity. Proceedings of the National Academy of Sciences, 96(16), 9118-9123). The Aldefluor™ kit assay was used according to the procedure described by the manufacturer. Briefly, MOLM-14 cell line was cultured in MEM alpha medium supplemented with 10% v/v Fetal Bovine Serum, 1% Penicillin-Streptomycin and maintained at 37° C. with 5% CO2. 5·10^5 cells were used in this assay. Each compound was added at different concentrations (see table 8), and cell cultures were incubated for 72 h. Vehicle (H2O) was used as a control, and all compounds were tested in a constant percentage of vehicle. Cells obtained from cell culture were incubated for 45 minutes at 37° C. with Aldefluor™ buffer assay containing the Bodipy™-aminoacetaldehyde, a fluorescent ALDH aldehyde substrate. ALDH converts the fluorescent substrate BAAA to the Bodipy™-aminoacetic acid (BAA) which is retained in the cell. An active efflux inhibitor is present in the Adelfluor™ assay buffer in order to avoid the active efflux from the cell of the substrate product ALDH dependent converted BAA. The fluorescent signal is directly proportional to the ALDH activity in the cells and is measured by flow cytometry. A negative control is used to measure the background fluorescence level. For such purpose, 4-(N,N-diethylamino)-benzaldehyde (DEAB) was used as selective ALDH inhibitor. A viability cell count was performed using LIVE/DEAD® Fixable Far Red Dead Cell Stain Kit (Invitrogen). The experimental data are analyzed using a computer program, Graphpad Prism v5 (GraphPad Software, Inc. La Jolla, Calif.) and EC50 values were determined as the dose of compound required to reduce absorbance values to 50% of the signal obtained for vehicle treated cell cultures.

MOLM-14 cell line [3] = assay: CellTiter-Glo cell viability / growth inhibition assay, MOLM-14 (Example 5); assay type: cell-based; details: Homo sapiens, 72 h; for viability at 4 µM / viability at 10 µM: MOLM-14
Experimental: (§4) All cell lines were maintained in medium containing 1% penicillin-streptomycin (Dutscher, P06-07100) and 10% Fetal Bovine Serum (Gibco, W3387L) except 20% for KG-1 cell line and PBMC, and cultured at 37° C. with 5% CO2.
MOLM-14 cell line was maintained in MEM alpha medium (Gibco, 22561-021).
(§5) Cell viability was measured using the CellTiter-Glo® luminescent cell viability assay as described by the manufacturer (Promega, Ref G7571) using an Infinite F200Pro luminometer (Tecan). Briefly, for adherent cells, cells were plated onto 96-well plates (white with clear bottom) in 90 μL of media per well and were allowed to grow overnight before the assay. For cells growing in suspension, cells were plated onto 96-well plates immediately before the assay.
Compounds were added at different concentrations to each well, and cell cultures were incubated for 72 h. Vehicle (H2O) was used as a control, and all compounds were tested in a constant percentage of H2O. After addition of 100 μL of CellTiter-Glo®, luminescence was measured using an Infinite F200Pro (Tecan). EC50 values were determined as the dose of compound required to reduce luminescent values to 50% of the signal obtained for untreated cell cultures. The experimental data were analyzed using a computer program, Graphpad Prism v5 (GraphPad Software, Inc. La Jolla, Calif.).
All experiments were at least done in duplicate and repeated two independent times.

[4] = system: LI0050 HCC patient derived cells; assay: CellTiter-Glo growth inhibition, HCC patient-derived cells LI0050; assay type: cell-based, human; details: LI0050, 72 hours
Experimental: (§6) The patient derived Hepatocellular Carcinoma (HCC) cells were maintained in medium respectively described in table 15 containing 1% penicillin-streptomycin (Life Technologies, 15070-063), with a supplements for primary cell culture (PCS) containing hydrocortisone (50 nM), Epidermal Growth Factor (20 ng/ml), β-fibroblast Growth Factor (10 ng/ml), Heparin (2 μg/ml) ITS liquid media supplement (1×) and non-essential amino acid (NEAA, 0.01 mM, 1×). The primary cell were cultured in a humidified atmosphere (95% relative humidity) with 5% CO2 at 37° C.
(§7) The cell growth inhibition assay was performed as described previously in example 5 using the CellTiter-Glo® luminescent cell viability assay as described by the manufacturer (Promega, Ref G7571). The number of cells seeded per well (in 96-Well Flat Clear Bottom Black Polystyrene TC-Treated Microplates, Cat #3340, Corning®) is described in the table 16. A backseal black sticker (Cat #6005189, Perkin Elmer) was placed to the bottom of each plate before recording CellTiter-Glo® luminescence.
(§8) The experimental data are analyzed using a computer program, Graphpad Prism V 5.0 (GraphPad Software, Inc. La Jolla, Calif.) and EC50 values were determined as the dose of compound required to reduce absorbance values to 50% of the signal obtained for vehicle treated cell cultures and were a mean of at least three independent experiments.

[5] = system: LI0574 HCC patient derived cells; assay: CellTiter-Glo growth inhibition, HCC patient-derived cells LI0574; assay type: cell-based, human; details: LI0574, 72 hours
Experimental: as §6, §7, §8

[6] = system: LI0612 HCC patient derived cells; assay: CellTiter-Glo growth inhibition, HCC patient-derived cells LI0612; assay type: cell-based, human; details: LI0612, 72 hours
Experimental: as §6, §7, §8

[7] = system: LI0752 HCC patient derived cells; assay: CellTiter-Glo growth inhibition, HCC patient-derived cells LI0752; assay type: cell-based, human; details: LI0752, 72 hours
Experimental: as §6, §7, §8

[8] = system: LI0801 HCC patient derived cells; assay: CellTiter-Glo growth inhibition, HCC patient-derived cells LI0801; assay type: cell-based, human; details: LI0801, 72 hours
Experimental: as §6, §7, §8

[9] = system: LI1005 HCC patient derived cells; assay: CellTiter-Glo growth inhibition, HCC patient-derived cells LI1005; assay type: cell-based, human; details: LI1005, 72 hours
Experimental: as §6, §7, §8

[10] = system: LI1098 HCC patient derived cells; assay: CellTiter-Glo growth inhibition, HCC patient-derived cells LI1098; assay type: cell-based, human; details: LI1098, 72 hours
Experimental: as §6, §7, §8

[11] = system: LI1646 HCC patient derived cells; assay: CellTiter-Glo growth inhibition, HCC patient-derived cells LI1646; assay type: cell-based, human; details: LI1646, 72 hours
Experimental: as §6, §7, §8

A375 cell line = assay: CellTiter-Glo growth inhibition assay, A375; assay type: cell-based; details: Homo sapiens, A-375; A375, malignant melanoma, 72 h
Experimental: as §4
(§9) HepG2, Huh7, HCT-116, MDA-MB-231 and A375 cell lines were cultured in Dulbecco's modified Eagle's medium (Dutscher, L0103).
as §5
(§10) Compounds were added at different concentrations to each well, and cell cultures were incubated for 72 h. Vehicle (H2O) was used as a control, and all compounds were tested in a constant percentage of H2O. After addition of 100 μL of CellTiter-Glo®, luminescence was measured using an Infinite F200Pro (Tecan). EC50 values were determined as the dose of compound required to reduce luminescent values to 50% of the signal obtained for untreated cell cultures. The experimental data were analyzed using a computer program, Graphpad Prism v5 (GraphPad Software, Inc. La Jolla, Calif.). […]

HCT-116 cell line = assay: CellTiter-Glo growth inhibition assay, HCT-116; assay type: cell-based; details: Homo sapiens; HCT-116, colorectal carcinoma, 72 h
Experimental: as §4, §9, §5, §10

HepG2 cell line = assay: CellTiter-Glo growth inhibition assay, HepG2; assay type: cell-based; details: Homo sapiens; HepG2, hepatocellular carcinoma, 72 h
Experimental: as §4, §9, §5, §10

SMILES: CCN(CC)CCNC(=O)c1c(C)[nH]c(/C=C2\C(=O)Nc3ccc(F)cc32)c1C [Sunitinib]
- EC50 (CAKI-1 cell line): 1.7 µM
- EC50 (786-O cell line): 6 µM

SMILES: Nc1ccn([C@@H]2O[C@H](CO)[C@@H](O)[C@@H]2O)c(=O)n1 [Cytarabin, reference compound]
- EC50 (MOLM-14 cell line [1]): 0.29 µM
- ALdefluor positive CSCs (%) ([2]; MOLM-14, 1 μM): 130%
- ALdefluor positive CSCs (%) ([2]; MOLM-14, 3 μM): 116%

SMILES: CC(C)(C)NC1CCN(c2cc(Nc3ccc(Cl)cc3)nc3ccccc23)CC1 [Compound 1-6, 2-(4-chlorophenylamino)-4-(4-tert-butylaminopiperidin-1-yl)-quinoline hydrochloride salt]
- viability at 4 µM (MOLM-14 cell line [3]): 71.8%
- viability at 10 µM (MOLM-14 cell line [3]): 12.1%

SMILES: N.N.[Cl][Pt][Cl] [Cisplatin]
- EC50 [4]: 1.3 µM
- EC50 [5]: 3.6 µM
- EC50 [6]: 16.3 µM
- EC50 [7]: 2.6 µM
- EC50 [8]: 1.5 µM
- EC50 [9]: 5.9 µM
- EC50 [10]: 5.1 µM
- EC50 [11]: 10 µM

SMILES: Cc1cc(Nc2cc(N3CCC(NC(C)(C)C)CC3)c3ccccc3n2)ccc1Nc1nccc(-c2cccnc2)n1 [Compound 4-3, 2-{4-[4-(pyridin-3-yl)-2-pyrimidinamino]-3-methyl-phenylamino}-4-(4-tert-butylaminopiperidin-1-yl)-quinoline hydrochloride salt]
- viability at 4 µM (MOLM-14 cell line [3]): 0.5%
- viability at 10 µM (MOLM-14 cell line [3]): 0.2%
- EC50 (MOLM-14 cell line [3]; MOLM-14, acute myeloïd leukemia, FLT3-ITD heterozygote+/−): 2.3 µM
- EC50 (A375 cell line): 1.4 µM
- EC50 (HCT-116 cell line): 1.8 µM
- EC50 (HepG2 cell line): 6.3 µM

SMILES: Cc1cc(Nc2cc(N3CCC(NC(C)(C)C)CC3)c3ccccc3n2)ccc1Nc1ncccn1 [Compound 3-5, 2-[3-methyl-4-(pyrimidin-2-ylamino)phenylamino]-4-(4-tert-butylaminopiperidin-1-yl)-quinoline hydrochloride salt]
- viability at 4 µM (MOLM-14 cell line [3]): 78.7%
- viability at 10 µM (MOLM-14 cell line [3]): 8.7%

SMILES: CNC(=O)c1cc(Oc2ccc(NC(=O)Nc3ccc(Cl)c(C(F)(F)F)c3)cc2)ccn1 [Sorafenib]
- EC50 (CAKI-1 cell line): 4.5 µM
- EC50 (786-O cell line): 6.8 µM
- EC50 ([4]; Homo sapiens): 9.1 µM
- EC50 ([5]; Homo sapiens): 8.7 µM
- EC50 ([6]; Homo sapiens): 17.9 µM
- EC50 ([7]; Homo sapiens): 6.3 µM
- EC50 ([8]; Homo sapiens): 5.7 µM
- EC50 ([9]; Homo sapiens): 14.5 µM
- EC50 ([10]; Homo sapiens): 10.9 µM
- EC50 ([11]; Homo sapiens): 10.3 µM
